# Test: (§1) The drug is tested on WLS-082 corresponding to human gut metagenome with ENA study accession number: PRJEB37062 and ENA sample accession number: ERS12561751 for biotransformation under anaerobic condition. The drug concentrations were measured over 9 timepoints collected between 0 and 24 hours of incubation by liquid-chromatography-coupled mass spectrometry (LC–MS)
# Settings: 2 µM
# Further: call rule not given here.
row,Bacterial Biotransformation,Compound
1,Compound metabolized,CC(=O)O[C@]1(C(C)=O)CC[C@H]2[C@@H]3C=C(C)C4=CC(=O)CC[C@]4(C)[C@H]3CC[C@@]21C [MEGESTROL ACETATE]
2,Compound NOT metabolized,CC12CC3CC(C)(C1)CC(N)(C3)C2 [MEMANTINE]

# Test: as §1, with “WLS-039” for “WLS-082”, “ERS12561746” for “ERS12561751”
# Settings: 2 µM
row,Bacterial Biotransformation,Compound
1,Compound metabolized,CC(=O)O[C@]1(C(C)=O)CC[C@H]2[C@@H]3C=C(C)C4=CC(=O)CC[C@]4(C)[C@H]3CC[C@@]21C [MEGESTROL ACETATE]
2,Compound metabolized,CC12CC3CC(C)(C1)CC(N)(C3)C2 [MEMANTINE]

# Settings: human gut metagenome, 24 h, 2 µM
row,Bacterial Biotransformation,Compound
1,Compound metabolized,CC(=O)O[C@]1(C(C)=O)CC[C@H]2[C@@H]3C=C(C)C4=CC(=O)CC[C@]4(C)[C@H]3CC[C@@]21C [MEGESTROL ACETATE]
2,Compound NOT metabolized,CC12CC3CC(C)(C1)CC(N)(C3)C2 [MEMANTINE]

# Test: as §1, with “Z-014” for “WLS-082”, “rat” for “human”, “ERS12561814” for “ERS12561751”
# Settings: 2 µM
row,Bacterial Biotransformation,Compound
1,Compound NOT metabolized,CC(=O)O[C@]1(C(C)=O)CC[C@H]2[C@@H]3C=C(C)C4=CC(=O)CC[C@]4(C)[C@H]3CC[C@@]21C [MEGESTROL ACETATE]
2,Compound NOT metabolized,CC12CC3CC(C)(C1)CC(N)(C3)C2 [MEMANTINE]

# Settings: human gut metagenome, 24 h, 2 µM
# Remark: another data set of the same source
row,Bacterial Biotransformation,Compound
1,Compound metabolized,CC(=O)O[C@]1(C(C)=O)CC[C@H]2[C@@H]3C=C(C)C4=CC(=O)CC[C@]4(C)[C@H]3CC[C@@]21C [MEGESTROL ACETATE]
2,Compound NOT metabolized,CC12CC3CC(C)(C1)CC(N)(C3)C2 [MEMANTINE]

# Test: as §1, with “WLS-027” for “WLS-082”, “ERS12561744” for “ERS12561751”
# Settings: 2 µM
row,Bacterial Biotransformation,Compound
1,Compound metabolized,CC(=O)O[C@]1(C(C)=O)CC[C@H]2[C@@H]3C=C(C)C4=CC(=O)CC[C@]4(C)[C@H]3CC[C@@]21C [MEGESTROL ACETATE]
2,Compound NOT metabolized,CC12CC3CC(C)(C1)CC(N)(C3)C2 [MEMANTINE]

# Test: as §1, with “WLS-090” for “WLS-082”, “ERS12561753” for “ERS12561751”
# Settings: 2 µM
row,Bacterial Biotransformation,Compound
1,Compound metabolized,CC(=O)O[C@]1(C(C)=O)CC[C@H]2[C@@H]3C=C(C)C4=CC(=O)CC[C@]4(C)[C@H]3CC[C@@]21C [MEGESTROL ACETATE]
2,Compound metabolized,CC12CC3CC(C)(C1)CC(N)(C3)C2 [MEMANTINE]

# Test: as §1, with “Z-017” for “WLS-082”, “mouse” for “human”, “ERS12561816” for “ERS12561751”
# Settings: 2 µM
row,Bacterial Biotransformation,Compound
1,Compound metabolized,CC(=O)O[C@]1(C(C)=O)CC[C@H]2[C@@H]3C=C(C)C4=CC(=O)CC[C@]4(C)[C@H]3CC[C@@]21C [MEGESTROL ACETATE]
2,Compound NOT metabolized,CC12CC3CC(C)(C1)CC(N)(C3)C2 [MEMANTINE]

# Settings: human gut metagenome, 24 h, 2 µM
# Remark: another data set of the same source
row,Bacterial Biotransformation,Compound
1,Compound metabolized,CC(=O)O[C@]1(C(C)=O)CC[C@H]2[C@@H]3C=C(C)C4=CC(=O)CC[C@]4(C)[C@H]3CC[C@@]21C [MEGESTROL ACETATE]
2,Compound NOT metabolized,CC12CC3CC(C)(C1)CC(N)(C3)C2 [MEMANTINE]

# Settings: human gut metagenome, 24 h, 2 µM
# Remark: another data set of the same source
row,Bacterial Biotransformation,Compound
1,Compound metabolized,CC(=O)O[C@]1(C(C)=O)CC[C@H]2[C@@H]3C=C(C)C4=CC(=O)CC[C@]4(C)[C@H]3CC[C@@]21C [MEGESTROL ACETATE]
2,Compound NOT metabolized,CC12CC3CC(C)(C1)CC(N)(C3)C2 [MEMANTINE]

# Test: as §1, with “Z-019” for “WLS-082”, “rat” for “human”, “ERS12561818” for “ERS12561751”
# Settings: 2 µM
row,Bacterial Biotransformation,Compound
1,Compound NOT metabolized,CC(=O)O[C@]1(C(C)=O)CC[C@H]2[C@@H]3C=C(C)C4=CC(=O)CC[C@]4(C)[C@H]3CC[C@@]21C [MEGESTROL ACETATE]
2,Compound NOT metabolized,CC12CC3CC(C)(C1)CC(N)(C3)C2 [MEMANTINE]

# Test: as §1, with “Z-018” for “WLS-082”, “pig” for “human”, “ERS12561817” for “ERS12561751”
# Settings: 2 µM
row,Bacterial Biotransformation,Compound
1,Compound metabolized,CC(=O)O[C@]1(C(C)=O)CC[C@H]2[C@@H]3C=C(C)C4=CC(=O)CC[C@]4(C)[C@H]3CC[C@@]21C [MEGESTROL ACETATE]
2,Compound NOT metabolized,CC12CC3CC(C)(C1)CC(N)(C3)C2 [MEMANTINE]

# Test: as §1, with “Z-010” for “WLS-082”, “to” for “to human gut”, “ERS12561810” for “ERS12561751”
# Settings: 2 µM
row,Bacterial Biotransformation,Compound
1,Compound metabolized,CC(=O)O[C@]1(C(C)=O)CC[C@H]2[C@@H]3C=C(C)C4=CC(=O)CC[C@]4(C)[C@H]3CC[C@@]21C [MEGESTROL ACETATE]
2,Compound NOT metabolized,CC12CC3CC(C)(C1)CC(N)(C3)C2 [MEMANTINE]

# Test: as §1, with “Z-021” for “WLS-082”, “to” for “to human gut”, “ERS12561820” for “ERS12561751”
# Settings: 2 µM
row,Bacterial Biotransformation,Compound
1,Compound NOT metabolized,CC(=O)O[C@]1(C(C)=O)CC[C@H]2[C@@H]3C=C(C)C4=CC(=O)CC[C@]4(C)[C@H]3CC[C@@]21C [MEGESTROL ACETATE]
2,Compound NOT metabolized,CC12CC3CC(C)(C1)CC(N)(C3)C2 [MEMANTINE]

# Test: as §1, with “Z-001” for “WLS-082”, “mouse” for “human”, “ERS12561801” for “ERS12561751”
# Settings: 2 µM
row,Bacterial Biotransformation,Compound
1,Compound metabolized,CC(=O)O[C@]1(C(C)=O)CC[C@H]2[C@@H]3C=C(C)C4=CC(=O)CC[C@]4(C)[C@H]3CC[C@@]21C [MEGESTROL ACETATE]
2,Compound NOT metabolized,CC12CC3CC(C)(C1)CC(N)(C3)C2 [MEMANTINE]

# Settings: human gut metagenome, 24 h, 2 µM
# Remark: another data set of the same source
row,Bacterial Biotransformation,Compound
1,Compound metabolized,CC(=O)O[C@]1(C(C)=O)CC[C@H]2[C@@H]3C=C(C)C4=CC(=O)CC[C@]4(C)[C@H]3CC[C@@]21C [MEGESTROL ACETATE]
2,Compound NOT metabolized,CC12CC3CC(C)(C1)CC(N)(C3)C2 [MEMANTINE]

# Test: as §1, with “WLS-086” for “WLS-082”, “ERS12561752” for “ERS12561751”
# Settings: 2 µM
row,Bacterial Biotransformation,Compound
1,Compound metabolized,CC(=O)O[C@]1(C(C)=O)CC[C@H]2[C@@H]3C=C(C)C4=CC(=O)CC[C@]4(C)[C@H]3CC[C@@]21C [MEGESTROL ACETATE]
2,Compound NOT metabolized,CC12CC3CC(C)(C1)CC(N)(C3)C2 [MEMANTINE]

# Test: as §1, with “WLS-170” for “WLS-082”, “ERS12561762” for “ERS12561751”
# Settings: 2 µM
row,Bacterial Biotransformation,Compound
1,Compound metabolized,CC(=O)O[C@]1(C(C)=O)CC[C@H]2[C@@H]3C=C(C)C4=CC(=O)CC[C@]4(C)[C@H]3CC[C@@]21C [MEGESTROL ACETATE]
2,Compound metabolized,CC12CC3CC(C)(C1)CC(N)(C3)C2 [MEMANTINE]

# Settings: human gut metagenome, 24 h, 2 µM
# Remark: another data set of the same source
row,Bacterial Biotransformation,Compound
1,Compound metabolized,CC(=O)O[C@]1(C(C)=O)CC[C@H]2[C@@H]3C=C(C)C4=CC(=O)CC[C@]4(C)[C@H]3CC[C@@]21C [MEGESTROL ACETATE]
2,Compound NOT metabolized,CC12CC3CC(C)(C1)CC(N)(C3)C2 [MEMANTINE]

# Test: as §1, with “Z-005” for “WLS-082”, “to” for “to human gut”, “ERS12561805” for “ERS12561751”
# Settings: 2 µM
row,Bacterial Biotransformation,Compound
1,Compound metabolized,CC(=O)O[C@]1(C(C)=O)CC[C@H]2[C@@H]3C=C(C)C4=CC(=O)CC[C@]4(C)[C@H]3CC[C@@]21C [MEGESTROL ACETATE]
2,Compound NOT metabolized,CC12CC3CC(C)(C1)CC(N)(C3)C2 [MEMANTINE]
